This experiment addresses T1, human cloned 5-HT6 receptors (Homo sapiens, UniProt P50406).
T1 construct: expressed in transfected cells
In words: 5-HT6 receptor affinity (procedures outlined in WO98/27081). It counts as binding. The conditions noted are these: read-out: pKi values at human cloned 5-HT6 receptors (converted). From the text: Compounds can be tested following the procedures outlined in WO98/27081.

A value given as a limit tells only on which side of the number the result lay.

T1 sequence (P50406 whole entry): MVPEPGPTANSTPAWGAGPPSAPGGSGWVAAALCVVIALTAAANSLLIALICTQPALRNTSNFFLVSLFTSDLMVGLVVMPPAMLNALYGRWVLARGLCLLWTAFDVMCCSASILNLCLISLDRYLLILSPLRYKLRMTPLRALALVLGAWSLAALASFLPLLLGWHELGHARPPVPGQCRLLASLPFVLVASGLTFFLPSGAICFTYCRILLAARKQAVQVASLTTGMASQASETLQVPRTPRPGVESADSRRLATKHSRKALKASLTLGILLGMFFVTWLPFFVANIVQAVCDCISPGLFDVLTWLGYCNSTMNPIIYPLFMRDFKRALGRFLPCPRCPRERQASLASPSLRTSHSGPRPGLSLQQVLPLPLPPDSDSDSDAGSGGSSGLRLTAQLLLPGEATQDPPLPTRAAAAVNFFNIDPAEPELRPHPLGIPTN

On to `O=S(=O)(c1ccccc1)c1cccc(N2CCNCC2)c1` [Example E1, 1-(3-Phenylsulfonyl-phenyl)piperazine], for which the Ki is below 10 nM.

For the compound `O=S(=O)(c1ccccc1)c1cccc(N2CCNCC2)c1Cl` [Example E2, 1-(3-Phenylsulfonyl-2-chlorophenyl)piperazine], the Ki is below 10 nM.

These data come from patent US7439245B2, “Compounds” (Glaxo Group Limited, priority 2003, dated 2008).
